The results in this text go back to ChEMBL document CHEMBL3763148, “Synthesis, structure elucidation, DNA-PK and PI3K and anti-cancer activity of 8- and 6-aryl-substituted-1-3-benzoxazines” (Eur J Med Chem, 2016).

Experiment [1] addresses Phosphatidylinositol 4,5-bisphosphate 3-kinase catalytic subunit gamma isoform (Homo sapiens) (UniProt P48736). Kind of experiment: Inhibition of PI3Kgamma (unknown origin) at 10 uM incubated for 60 mins by kinase-glo luminescence assay.
Experiment [2] deals with T1, Phosphatidylinositol 4,5-bisphosphate 3-kinase catalytic subunit delta isoform (Homo sapiens, UniProt O00329).
T1 sequence (O00329 whole entry): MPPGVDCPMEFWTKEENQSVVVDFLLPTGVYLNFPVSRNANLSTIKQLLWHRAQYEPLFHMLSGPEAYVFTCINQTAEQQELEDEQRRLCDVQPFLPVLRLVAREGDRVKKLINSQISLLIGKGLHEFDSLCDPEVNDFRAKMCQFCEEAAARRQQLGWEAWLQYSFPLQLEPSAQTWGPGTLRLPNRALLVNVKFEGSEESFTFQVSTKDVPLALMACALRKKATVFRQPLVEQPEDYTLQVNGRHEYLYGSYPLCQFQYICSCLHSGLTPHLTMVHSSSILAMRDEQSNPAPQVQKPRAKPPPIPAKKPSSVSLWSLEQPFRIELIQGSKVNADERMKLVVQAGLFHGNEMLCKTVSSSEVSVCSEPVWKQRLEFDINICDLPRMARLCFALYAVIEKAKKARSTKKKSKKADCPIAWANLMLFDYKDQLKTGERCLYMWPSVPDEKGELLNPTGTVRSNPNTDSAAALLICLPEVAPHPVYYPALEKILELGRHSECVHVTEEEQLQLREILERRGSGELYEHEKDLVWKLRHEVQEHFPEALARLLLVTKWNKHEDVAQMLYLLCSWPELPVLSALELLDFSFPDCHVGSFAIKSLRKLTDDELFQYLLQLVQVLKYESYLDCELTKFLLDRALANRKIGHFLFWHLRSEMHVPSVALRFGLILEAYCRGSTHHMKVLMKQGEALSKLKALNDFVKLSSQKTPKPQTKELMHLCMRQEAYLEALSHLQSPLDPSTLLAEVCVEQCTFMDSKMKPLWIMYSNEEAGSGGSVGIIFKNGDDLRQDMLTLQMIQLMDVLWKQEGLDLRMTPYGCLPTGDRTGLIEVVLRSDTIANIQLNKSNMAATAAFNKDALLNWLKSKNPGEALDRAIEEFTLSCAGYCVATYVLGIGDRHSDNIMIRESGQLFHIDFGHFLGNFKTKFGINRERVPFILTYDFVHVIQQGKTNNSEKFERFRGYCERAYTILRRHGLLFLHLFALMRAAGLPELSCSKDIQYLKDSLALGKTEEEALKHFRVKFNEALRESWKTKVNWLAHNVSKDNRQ
Kind of experiment: Inhibition of PI3Kdelta (unknown origin) incubated for 60 mins by kinase-glo luminescence assay.

The next experiment concerns A549. Briefly: Cytotoxicity against human A549 cells assessed as cell growth inhibition at 10 uM after 48 hrs by SRB assay relative to control. The format is functional. The settings on record: A549, 48 h, read-out: GI.
A further experiment deals with NCI-H322M. Briefly: Cytotoxicity against human NCI-H322M cells assessed as cell growth inhibition at 10 uM after 48 hrs by SRB assay relative to control. The format is functional. The settings on record: read-out: GI.
A further experiment has as its system NCI-H460. Kind of experiment: Cytotoxicity against human NCI-H460 cells assessed as cell growth inhibition at 10 uM after 48 hrs by SRB assay relative to control. The format is functional. The settings on record: NCI-H460, 48 h, read-out: GI.
In a further experiment the test system is NCI-H522. Briefly: Cytotoxicity against human NCI-H522 cells assessed as cell growth inhibition at 10 uM after 48 hrs by SRB assay relative to control. It counts as functional. The settings on record: NCI-H522, 48 h, read-out: GI.
A short description of experiment [3]: Cytotoxicity against human COLO205 cells assessed as cell growth inhibition at 10 uM after 48 hrs by SRB assay relative to control. It counts as functional. The settings on record: COLO 205, 48 h, read-out: GI.
The nature of experiment [4]: Cytotoxicity against human HCC2998 cells assessed as cell growth inhibition at 10 uM after 48 hrs by SRB assay relative to control. The format is functional. The settings on record: HCC 2998, 48 h, read-out: GI.
Experiment [5] is described as follows: Cytotoxicity against human SNB19 cells assessed as cell growth inhibition at 10 uM after 48 hrs by SRB assay relative to control. The settings on record: SNB-19, 48 h, read-out: GI. It counts as functional.
Another experiment relates to Malme-3M. Kind of experiment: Cytotoxicity against human MALME-3M cells assessed as cell growth inhibition at 10 uM after 48 hrs by SRB assay relative to control. The format is functional. The settings on record: read-out: GI.
In a further experiment the test system is MDA-MB-435. Kind of experiment: Cytotoxicity against human MDA-MB-435 cells assessed as cell growth inhibition at 10 uM after 48 hrs by SRB assay relative to control. It counts as functional. The settings on record: MDA-MB-435, 48 h, read-out: GI.
The next experiment deals with SK-MEL-2. Kind of experiment: Cytotoxicity against human SK-MEL-2 cells assessed as cell growth inhibition at 10 uM after 48 hrs by SRB assay relative to control. It counts as functional. The settings on record: SK-MEL-2, 48 h, read-out: GI.
Experiment [6] can be described thus: Cytotoxicity against human UACC62 cells assessed as cell growth inhibition at 10 uM after 48 hrs by SRB assay relative to control. The format is functional. The settings on record: UACC-62, 48 h, read-out: GI.
Experiment [7] can be described thus: Cytotoxicity against human OVCAR3 cells assessed as cell growth inhibition at 10 uM after 48 hrs by SRB assay relative to control. It counts as functional. The settings on record: OVCAR-3, 48 h, read-out: GI.
Another experiment has as its system 786-0. Briefly: Cytotoxicity against human 786-0 cells assessed as cell growth inhibition at 10 uM after 48 hrs by SRB assay relative to control. It counts as functional. The settings on record: 786-0, 48 h, read-out: GI.
For a further experiment, the system named is A498. Briefly: Cytotoxicity against human A498 cells assessed as cell growth inhibition at 10 uM after 48 hrs by SRB assay relative to control. The format is functional. The settings on record: A498, 48 h, read-out: GI.
A further experiment deals with ACHN. Kind of experiment: Cytotoxicity against human ACHN cells assessed as cell growth inhibition at 10 uM after 48 hrs by SRB assay relative to control. It counts as functional. The settings on record: read-out: GI.
For a further experiment, the system named is SN12C. Kind of experiment: Cytotoxicity against human SN12C cells assessed as cell growth inhibition at 10 uM after 48 hrs by SRB assay relative to control. The format is functional. The settings on record: read-out: GI.
The nature of experiment [8]: Cytotoxicity against human UO31 cells assessed as cell growth inhibition at 10 uM after 48 hrs by SRB assay relative to control. It counts as functional. The settings on record: UO-31, 48 h, read-out: GI.
The nature of experiment [9]: Cytotoxicity against human DU145 cells assessed as cell growth inhibition at 10 uM after 48 hrs by SRB assay relative to control. The settings on record: DU-145, 48 h, read-out: GI. The format is functional.
A short description of experiment [10]: Cytotoxicity against human Hs 578T cells assessed as cell growth inhibition at 10 uM after 48 hrs by SRB assay relative to control. It counts as functional. The settings on record: read-out: GI.
Experiment [11] can be described thus: Cytotoxicity against human BT549 cells assessed as cell growth inhibition at 10 uM after 48 hrs by SRB assay relative to control. The format is functional. The settings on record: BT-549, 48 h, read-out: GI.
For a further experiment, the system named is T47D. Kind of experiment: Cytotoxicity against human T47D cells assessed as cell growth inhibition at 10 uM after 48 hrs by SRB assay relative to control. The format is functional. The settings on record: read-out: GI.
For another experiment, the system named is MDA-MB-468. Briefly: Cytotoxicity against human MDA-MB-468 cells assessed as cell growth inhibition at 10 uM after 48 hrs by SRB assay relative to control. The settings on record: MDA-MB-468, 48 h, read-out: GI. The format is functional.

Sequence of Phosphatidylinositol 4,5-bisphosphate 3-kinase catalytic subunit gamma isoform (Homo sapiens) (P48736 whole entry, looked up, canonical isoform): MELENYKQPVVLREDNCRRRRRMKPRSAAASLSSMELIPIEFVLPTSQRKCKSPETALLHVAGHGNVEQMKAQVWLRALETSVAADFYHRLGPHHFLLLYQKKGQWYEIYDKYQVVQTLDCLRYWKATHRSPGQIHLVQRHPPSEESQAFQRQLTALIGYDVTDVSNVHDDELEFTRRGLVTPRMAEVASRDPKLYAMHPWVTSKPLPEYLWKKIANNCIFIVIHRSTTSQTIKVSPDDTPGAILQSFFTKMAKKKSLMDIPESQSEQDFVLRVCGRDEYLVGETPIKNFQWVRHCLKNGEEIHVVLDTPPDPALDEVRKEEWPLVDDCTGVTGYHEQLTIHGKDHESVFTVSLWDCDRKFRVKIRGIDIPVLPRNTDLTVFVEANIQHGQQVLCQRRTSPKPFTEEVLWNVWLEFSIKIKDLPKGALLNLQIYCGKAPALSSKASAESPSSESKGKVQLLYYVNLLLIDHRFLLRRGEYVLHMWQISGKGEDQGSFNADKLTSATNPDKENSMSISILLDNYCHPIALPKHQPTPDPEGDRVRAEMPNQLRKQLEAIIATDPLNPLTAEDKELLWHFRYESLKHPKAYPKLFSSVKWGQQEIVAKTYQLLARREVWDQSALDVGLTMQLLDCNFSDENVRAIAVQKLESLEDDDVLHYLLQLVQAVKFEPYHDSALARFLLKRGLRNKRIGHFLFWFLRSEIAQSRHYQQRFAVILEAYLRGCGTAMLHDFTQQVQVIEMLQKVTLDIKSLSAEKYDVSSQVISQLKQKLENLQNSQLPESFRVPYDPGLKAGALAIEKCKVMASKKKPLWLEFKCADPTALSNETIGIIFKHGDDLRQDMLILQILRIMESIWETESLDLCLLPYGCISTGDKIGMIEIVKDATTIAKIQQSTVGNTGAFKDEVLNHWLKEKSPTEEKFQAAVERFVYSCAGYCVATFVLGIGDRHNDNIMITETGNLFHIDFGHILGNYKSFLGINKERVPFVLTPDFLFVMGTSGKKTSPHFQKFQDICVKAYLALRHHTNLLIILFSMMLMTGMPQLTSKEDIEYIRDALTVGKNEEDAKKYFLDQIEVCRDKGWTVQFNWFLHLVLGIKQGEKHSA

Consider `O=c1nc(N2CCOCC2)oc2c(-c3cccc4c3oc3ccccc34)cccc12`, for which the inhibition in experiment [1] came to 32%. In addition, the IC50 in [2] came out at 12 µM. Moreover, the inhibition of growth at 10 µM with A549 is 12%; with NCI-H322M, 22.3%; in the experiment with NCI-H460 it was -2.97%; in the experiment with NCI-H522, 23%; in [3], -2.34%; in experiment [4], -4.36%. For the same molecule, the inhibition of growth at 10 µM in experiment [5] was 4.3%; in the experiment on Malme-3M, 19.7%; in the experiment with MDA-MB-435 it was 17.1%; in the experiment with SK-MEL-2, -4.28%; in [6] it was 37.4%; in [7], 2.85%. Also, the inhibition of growth at 10 µM came to 21.8% with 786-0; 27.9% in the experiment with A498; 6.98% with ACHN; 5.07% with SN12C; 40.1% in experiment [8]; 1.77% in experiment [9]. Besides, the inhibition of growth at 10 µM worked out at 14.6% in [10], 2.25% in experiment [11], 15.1% in the experiment with T47D and 18.7% in the experiment with MDA-MB-468.
In experiment [1], `O=c1nc(N2CCOCC2)oc2c(-c3cccc4ccccc34)cccc12` registered an inhibition of 29%. The molecule further had a 50% inhibitory concentration (IC50) in [2] of 0.64 µM. Besides, the inhibition of growth at 10 µM is 14.4% in the experiment on A549; 9.24% in the experiment on NCI-H322M; -10% with NCI-H460; 18% with NCI-H522; -3.19% in [3]; -9.26% in [4]. Besides, the inhibition of growth at 10 µM is 8.18% in experiment [5]; 24.8% with Malme-3M; -1.44% in the experiment on MDA-MB-435; -0.37% with SK-MEL-2; 45.6% in experiment [6]; 14.2% in experiment [7]. The inhibition of growth at 10 µM in the experiment on 786-0 amounted to 25.6%; in the experiment with A498, 92%; with ACHN, 18.4%; with SN12C it was 17.7%; in experiment [8], 46.6%; in [9], 2.34%. Moreover, the inhibition of growth at 10 µM in experiment [10] was 16.2%; in experiment [11], 14.7%; in the experiment on T47D, 20.3%; in the experiment with MDA-MB-468 it was 23.5%.
Molecule `O=c1nc(N2CCOCC2)oc2c(-c3cccs3)cccc12` gave an inhibition in experiment [1] of 16%. This molecule had an IC50 in [2] of 4.5 µM. Moreover, the inhibition of growth at 10 µM with A549 was 5.77%; with NCI-H322M, 9.05%; in the experiment with NCI-H460 it was -5.8%; in the experiment with NCI-H522, 13.8%; in experiment [3], 1.02%; in experiment [4], -4.81%. For the same molecule, the inhibition of growth at 10 µM in experiment [5] is 5.86%; with Malme-3M, 16.1%; in the experiment with MDA-MB-435, -0.12%; in the experiment on SK-MEL-2, -7.08%; in experiment [6], 20.9%; in experiment [7], 2.61%. Also, the inhibition of growth at 10 µM with 786-0 was 7.7%; with A498, 36.8%; in the experiment with ACHN, 2.88%; with SN12C it was -3.08%; in experiment [8] it was 20.2%; in experiment [9], -2.35%. The inhibition of growth at 10 µM in experiment [10] came to 7.89%; in experiment [11], 14.5%; with T47D, 17.8%; in the experiment with MDA-MB-468 it was 20.3%.
